Laboratory results published in patent publication US8815862B2, “Co-crystal intermediates of rosuvastatin and methods of using same” (F.I.S. Fabbrica Italiana Sintetici S.p.A., priority 2011, dated 2014).

Columns and labels:
[1] = Solubility in a series of solvents at room temperature; type: physicochemical
Description: The solubility of co-crystal Rosuvastatin 2-aminopyrimidine hemihydrate in a series of solvents at room temperature is provided in Table 2 given below: […]

[2] = Solid-state stability, stored at room temperature in a sealed vial (XRPD); type: physicochemical; conditions: 3 weeks
[3] = Humidity stability, stored at room temperature at RH 100% (XRPD); type: physicochemical; conditions: RH of 100%, 24 h
Description: Moreover, the solid maintains its good handling properties.

[4] = Stability study at 40° C. under vacuum (impurity/lactone content); type: physicochemical; conditions: for lactone content after storage: 20 and 40 hours (final value); for chemical stability compared to Rosuvastatin acid: 40 h, hemihydrate; for lactone impurity content of starting product: before storage
Experimental: Stability Studies at 40° C. Under Vacuum of Co-crystal Rosuvastatin 2-Aminopyrimidine Hemihydrates Compared to Rosuvastatin
The co-crystal has only 3 impurities at 5.651, 5.948 and 6.674 (lactone) min.
For RSV, only some impurities (impurities in common with the co-crystal or impurities with a significant variation) were studied.
Storage conditions: 40° C. under vacuum for 20 and 40 hours.

[5] = Polymorphism observed during screening and purification studies; type: physicochemical; conditions: during screening and studies of the purification of Rosuvastatin
Description: Co-crystals of the present invention have a relative lack of polymorphism due to the higher complexity of the crystal structure: polymorphs of co-crystal Rosuvastatin 2-aminopyrimidine hemihydrate were not observed during screening and studies of the purification of Rosuvastatin. In contrast, form salts of Rosuvastatin amines having different polymorphs.

[6] = cited from earlier work
[7] = 40° C. under vacuum, 20 and 40 hours

Row | Molecule | solubility in ACN ([1]; ACN) [vol.] | solubility in AcOEt ([1]; AcOEt) [vol.] | solubility in Acetone ([1]; Acetone) [vol.] | solubility in EtOH ([1]; EtOH) [vol.] | solubility in MIK ([1]; MIK) [vol.] | solubility in MeOH ([1]; MeOH) [vol.] | solubility in THF ([1]; THF) [vol.] | crystalline transformation or loss of crystallinity (XRPD) [2] | XRPD / crystallinity after humidity exposure [3] | change of other impurities on storage [4, 7] | new impurities on storage [4, 7] | lactone content after storage ([4]; 40° C. under vacuum) [%] | chemical stability compared to Rosuvastatin acid ([4]; 40° C. under vacuum, listed as Co-crystal Rosuvastatin 2-aminopyrimidine hemihydrate) | chemical stability compared to Rosuvastatin acid ([4]; 40° C. under vacuum, listed as co-crystal) | lactone impurity content of starting product [4] [%] | polymorphs observed [5] | pKa [6]
1 | Rosuvastatin 2-aminopyrimidine hemihydrate | 14 | 20 | 4 | 10 | 45 | 3 | 2 | does not show crystalline transformation (same XRPD) or loss of crystallinity | same XRPD without loss of crystallinity | negligible | No new impurities were observed | 0.091 | higher than the Rosuvastatin acid | higher than the stability of the Rosuvastatin acid | 0.036 | not observed | –
2 | c1ccc2nccnc2c1 [quinoxaline] | – | – | – | – | – | – | – | – | – | – | – | – | – | – | – | – | 0.56
3 | CC(C)c1nc(N(C)S(C)(=O)=O)nc(-c2ccc(F)cc2)c1/C=C/[C@@H](O)C[C@@H](O)CC(=O)O [RSV, (E)-(3R,5S)-7-[4-(4-Fluorophenyl)-6-isopropyl-2-[(methylsulfonyl)(methyl)amino]pyrimidin-5-yl]-3,5-dihydroxyhept-6-enoic acid, reference compound] | – | – | – | – | – | – | – | – | – | increased with time | – | 39.84 | – | – | 17.267 | – | 4.6
